# From paper PMC9434700 (Journal of medicinal chemistry, 2022)
# Test system: mGluR2
# Conditions: monkey thalamus, compound 2 0.5 mg/kg iv 10 min before tracer
compound,measurement,value
"Cc1c(OCc2cccc(-c3ccc(C(=O)O)cc3)c2)cc2c(c1C)C(=O)C(C1CCCC1)C2 (stereo not shown) [Compound 2, Biphenyl-indanone A]",enhancement of [18F]9 Logan VT after pretreatment,~ 3.3%
